Converted amounts (≈) assume the structure as drawn. Where two headings read alike, the source gives them in different places. One block for each compound: values may come before it.
Key:
[1] = system: herpes simplex virus 1 (HSV-1; strain HFEM); assay: Plaque reduction test for herpes simplex virus 1; type: cell-based; details: Human alphaherpesvirus 1, Vero, HFEM strain in Vero cells; each figure is the value obtained in a single test; read-out: IC₅₀ Herpes Simplex Type 1 virus HFEM strain in Vero cells
Description: (§1) Cells (Vero or MRC-5) were grown to confluence in 24 well multi-dishes (well diameter = 1.5cm). The drained cell monolayers were each infected with approximately 50 infectious particles of herpes simplex virus 1 (HSV-1; strain HFEM) or herpes simplex virus 2 (HSV-2; strain MS) in 100»l of phosphate-buffered saline. The virus was adsorbed for 1 hour at room temperature. After adsorption, residual inoculum was removed from each well and replaced with 0.5ml of Eagle's MEM containing 5% newborn calf serum and 0.9% agarose (A37). Once the agarose had set, dilutions of the test compound, which had been prepared in Eagle's MEM (containing 5% newborn calf serum), were added, each well receiving 0.5ml of liquid overlay. The test compound was diluted to give the following series of concentrations: 200, 60, 20, 6....0.06»g/ml; final concentrations in the assay ranged, therefore, between 100»g/ml and 0.03»g/ml. The infected cultures were incubated at 37°C in a humidified atmosphere of 5% CO₂ until plaques were clearly visible (2 or 3 days for Vero cells, usually 1 day for MRC-5 cells).
(§2) Cultures from 1 and 2 were fixed in formal saline, the agarose overlays were carefully washed off, and then the cell monolayers were stained with carbol fuchsin. A stereo microscope was used to count plaques. The IC₅₀ (concentration of drug which inhibits plaque number by 50% relative to the number of plaques observed in virus control monolayers) of the test compound was calculated. In addition, the monolayers were examined for evidence of drug-induced cytotoxicity; the minimum concentration at which cytotoxicity occurs was recorded.

[2] = system: herpes simplex virus 2 (HSV-2; strain MS); assay: Plaque reduction test for herpes simplex virus 2; type: cell-based, Herpes Simplex Type 2 virus; details: each figure is the value obtained in a single test
Description: as §1, §2

[3] = system: visna virus (strain K184); assay: CPE inhibition test (established monolayer) for lentiviruses; type: cell-based; details: minimum concentration giving complete protection of the cell monolayers
Description: 3 x 10⁴ sheep choroid plexus (SCP) cells were plated into individual wells of a 96 well microtitre plate in 100»l of Eagle's MEM with Hanks salts containing 10% heat inactivated foetal calf serum (FCS). When monolayers had become established (after 1 or 2 days growth) they were washed with 200»l of maintenance medium (Eagle's MEM with Hanks salts containing 0.5% FCS) and infected with 100»l of visna virus (strain K184) in maintenance medium (30 TCID₅₀/ml). Test samples were diluted with maintenance medium in further 96 well microtitre plates over the range 200-0.09»g/ml by 3-fold dilution steps. 100»l of the diluted samples was then transferred directly onto virus-infected monolayers (final concentration range therefore 100-0.045»g/ml) and incubated at 37°C in a humidified, 5% CO₂ incubation until virus-induced CPE was maximal in the untreated virus-infected controls (usually 12-14 days). The plates were fixed with formal saline and stained with crystal violet. Virus-induced CPE was then scored microscopically and the minimum concentration of sample giving complete protection of the cell monolayers (MIC) determined.

[4] = system: herpes simplex virus 1, strain SC16; assay: CPE inhibition test (replicating cells) for herpes simplex virus 1; type: cell-based; details: Human alphaherpesvirus 1, SC16, MRC5, SC16 strain in MRC-5 cells; each figure is the value obtained in a single test; read-out: IC₅₀ Herpes Simplex Type 1 virus SC16 strain in MRC-5 cells
Description: MRC-5 cells (in Eagles MEM containing 5% newborn calf serum) were infected in suspension with herpes simplex virus 1, strain SC16 (approximately one infectious particle per 10 cells). One hundred microlitres of the infected cell suspension (containing approximately 2 x 10⁴ cells) were dispensed into each well of a 96 well microtitre plate containing an equal volume of the test drug in medium (Eagles MEM containing 5% newborn calf serum) at concentrations ranging from 200 to 0.09»g/ml (3-fold dilution steps); final concentrations therefore ranged between 100 to 0.045»g/ml. The plates were then incubated at 37°C in a humidified atmosphere of 5% CO₂ for 3 days when the virus-induced cytopathic effect (CPE) in the control wells reached 100%. The plates were fixed in formal saline and stained with carbol fuchsin. […] Plates of uninfected cells were set up in parallel to determined the minimum concentration of test compound which caused cytotoxicity.

[5] = system: varicella zoster virus (VZV; Ellen strain); assay: Plaque reduction test for varicella zoster virus; type: cell-based; details: Human alphaherpesvirus 3, MRC5, Ellen strain in MRC-5 cells; each figure is the value obtained in a single test; read-out: IC₅₀ Varicella Zoster virus Ellen strain in MRC-5 cells
Description: MRC-5 cells were grown to confluence in 24 well multi-dishes (well diameter = 1.5cm). The drained cell monolayers were each infected with approximately 50 infectious particles of varicella zoster virus (VZV; Ellen strain) in 100»l of phosphate-buffered saline. The virus was adsorbed for 1 hour at room temperature. After adsorption, residual inoculum was removed from each well and replaced with 0.5ml of Eagle's MEM containing 5% heat-inactivated foetal calf serum and 0.9% agarose (A37). Once the agarose had set, dilutions of the test compound, which had been prepared in Eagle's MEM (containing 5% heat-inactivated foetal calf serum), were added, each well receiving 0.5ml of liquid overlay. The test compound was diluted to give the following series of cencentrations: 200, 60, 20, 6....0.06»g/ml; final concentrations in the assay ranged, therefore, between 100»g/ml and 0.03»g/ml. The infected cultures were incubated at 37°C in a humidified atmosphere of 5% CO₂ until plaques were clearly visible (5 or 6 days).
as §2

[6] = Human alphaherpesvirus 2, MRC5, MS strain in MRC-5 cells, read-out: IC₅₀ Herpes Simplex Type 2 virus MS strain in MRC-5 cells
[7] = Human alphaherpesvirus 2, Vero, MS strain in Vero cells, read-out: IC₅₀ Herpes Simplex Type 2 virus MS strain in Vero cells

SMILES: Nc1nc2c(ncn2OCCCO)c(=O)[nH]1 [Example 1, 9-(3-Hydroxyprop-1-oxy)guanine]
IC50 [1]: 0.4 µg/mL (≈ 1.78 µM)
IC50 [2, 6]: 0.1 µg/mL (≈ 0.444 µM)
IC50 [2, 7]: 0.3 µg/mL (≈ 1.33 µM)
MIC Visna Virus K184 strain in SCP cells [3]: 3.0 »g/ml

SMILES: CC(=O)OCCCOn1cnc2c(=O)[nH]c(N)nc21 [Example 2, 9-(3-Acetoxyprop-1-oxy)guanine]
IC50 [1]: 4.3 µg/mL (≈ 16.1 µM)
IC50 [4]: 0.4 µg/mL (≈ 1.5 µM)
IC50 [2, 6]: 1.1 µg/mL (≈ 4.12 µM)

IC50 [1]: 2.8 µg/mL (≈ 8.5 µM)
SMILES: Nc1nc2c(ncn2OCCCOC(=O)c2ccccc2)c(=O)[nH]1 [Example 3, 9-(3-Benzoyloxyprop-1-oxy)guanine]
IC50 [4]: 1.2 µg/mL (≈ 3.64 µM)
IC50 [2, 6]: 2.1 µg/mL (≈ 6.38 µM)

SMILES: CCOc1nc(N)nc2c1ncn2OCCCO [Example 4, 2-Amino-6-ethoxy-9-(3-hydroxyprop-1-oxy)purine]
IC50 [4]: 100 µg/mL (≈ 395 µM)
IC50 [2, 6]: 67 µg/mL (≈ 265 µM)
IC50 [5]: 21 µg/mL (≈ 82.9 µM)

SMILES: Nc1nc2c(ncn2OCC(CO)CO)c(=O)[nH]1 [Example 5, 9-(3-Hydroxy-2-hydroxymethylprop-1-oxy)guanine]
IC50 [1]: 1.5 µg/mL (≈ 5.88 µM)
IC50 [4]: 1.8 µg/mL (≈ 7.05 µM)
IC50 [2, 6]: 1.5 µg/mL (≈ 5.88 µM)
IC50 [2, 7]: 1.5 µg/mL (≈ 5.88 µM)
IC50 [5]: 2.9 µg/mL (≈ 11.4 µM)
MIC Visna Virus K184 strain in SCP cells [3]: 0.1 »g/ml

SMILES: Nc1nc2c(ncn2OCC(O)CO)c(=O)[nH]1 (stereo not shown) [Example 6, 9-(2,3-Dihydroxyprop-1-oxy)guanine]
IC50 [1]: 8.6 µg/mL (≈ 35.7 µM)
IC50 [4]: 1.9 µg/mL (≈ 7.88 µM)
IC50 [2, 6]: 0.7 µg/mL (≈ 2.9 µM)
IC50 [2, 7]: 1.6 µg/mL (≈ 6.63 µM)
IC50 [5]: 2.3 µg/mL (≈ 9.54 µM)
MIC Visna Virus K184 strain in SCP cells [3]: 10 »g/ml

SMILES: Nc1ncc2ncn(OCC(O)CO)c2n1 (stereo not shown) [Example 7, 2-Amino-9-(2,3-dihydroxyprop-1-oxy)purine]
IC50 [4]: 100 µg/mL (≈ 444 µM)
IC50 [5]: 57 µg/mL (≈ 253 µM)

MIC Visna Virus K184 strain in SCP cells [3]: 30 »g/ml
SMILES: Nc1nc2c(ncn2OC(CO)CCO)c(=O)[nH]1 (stereo not shown) [Example 8, 9-(1,4-Dihydroxybut-2-oxy)guanine]
IC50 [4]: 11 µg/mL (≈ 43.1 µM)

IC50 [1]: 0.7 µg/mL (≈ 2.16 µM)
SMILES: CCCCCC(=O)OCCCOn1cnc2c(=O)[nH]c(N)nc21 [Example 11, 9-(3-Hexanoyloxyprop-1-oxy)guanine]
IC50 [4]: 0.1 µg/mL (≈ 0.309 µM)
IC50 [5]: 0.1 µg/mL (≈ 0.309 µM)

SMILES: Nc1nc2c(ncn2O[C@@H](CO)CCO)c(=O)[nH]1 [Example 14, (R)-9-(1,4-Dihydroxybut-2-oxy)guanine]
IC50 [4]: 100 µg/mL (≈ 392 µM)

SMILES: Nc1nc2c(ncn2O[C@H](CO)CCO)c(=O)[nH]1 [Example 15, (S)-9-(1,4-Dihydroxybut-2-oxy)guanine]
IC50 [4]: 7.4 µg/mL (≈ 29 µM)

— EP0242482B1, “Antiviral purine derivatives and process for their preparation” (BEECHAM GROUP PLC, priority 1985, dated 1987)
